ChEMBL document CHEMBL5385871, “Application and synthesis of thiazole ring in clinically approved drugs” (Eur J Med Chem, 2023)
In brackets after ≈: the same amount, converted by molar mass. Where a name gives a salt, the structure may show the parent alone.

Assays:
[1] = Inhibition of PI3Kalpha H1047R mutant (unknown origin); design: species or system Homo sapiens
[2] = system: Moraxella catarrhalis; assay: Antibacterial activity against Moraxella catarrhalis assessed as bacterial growth inhibition; assay type: functional
[3] = system: Haemophilus influenzae; assay: Antibacterial activity against Haemophilus influenzae assessed as bacterial growth inhibition; assay type: functional
[4] = system: Streptococcus pneumoniae; assay: Antibacterial activity against Streptococcus pneumoniae assessed as bacterial growth inhibition; assay type: functional
[5] = system: Staphylococcus epidermidis; assay: Antibacterial activity against Staphylococcus epidermidis assessed as bacterial growth inhibition; assay type: functional
[6] = system: Streptococcus pyogenes; assay: Antibacterial activity against Streptococcus pyogenes assessed as bacterial growth inhibition; assay type: functional
[7] = system: Staphylococcus aureus; assay: Antibacterial activity against Staphylococcus aureus assessed as bacterial growth inhibition; assay type: functional
[8] = system: Clostridioides difficile; assay: Antibacterial activity against Clostridium difficile assessed as bacterial growth inhibition; assay type: functional
[9] = system: Bacteroides fragilis; assay: Antibacterial activity against Bacteroides fragilis assessed as bacterial growth inhibition; assay type: functional
[10] = Inhibition of proliferation in Giardia lamblia trophozoites; assay type: functional, Giardia duodenalis
[11] = target: T1, Beta-2 adrenergic receptor (Homo sapiens, UniProt P07550); assay: Inhibition of beta-2 adrenoceptor (unknown origin)
[12] = target: T2, Beta-1 adrenergic receptor (Homo sapiens, UniProt P08588); assay: Inhibition of beta-1 adrenoceptor (unknown origin)
[13] = in vivo; details: Sprague-Dawley, rat, iv, 10 mg/kg
Description: Half life in fasted Sprague-Dawley rat at 10 mg/kg, iv measured for 10 hrs by LC/MS/MS analysis

[14] = system: K562; assay: cells; details: Homo sapiens, K562, 72 h
Description: Antiproliferative activity against human K562 cells incubated for 72 hrs by MTT assay

[15] = in vivo; details: Sprague-Dawley, rat, po, 10 mg/kg
Description: Half life in fasted Sprague-Dawley rat at 10 mg/kg, po administered via gavage measured for 10 hrs by LC/MS/MS analysis

[16] = Oral bioavailability in fasted Sprague-Dawley rat at 10 mg/kg administered via gavage measured for 10 hrs by LC/MS/MS analysis; assay type: ADME, organism-based; details: in vivo
[17] = system: WiDr; assay: cells; details: Homo sapiens, 72 h
Description: Antiproliferative activity against human WiDr cells incubated for 72 hrs by MTT assay

[18] = Terminal half life in fasted Sprague-Dawley rat at 3 mg/kg, po measured for 24 hrs by LC-MS/MS analysis; assay type: ADME, organism-based; details: in vivo, read-out: beta t1/2 (converted)
[19] = Terminal half life in fasted cynomolgus monkey at 3 mg/kg, po measured for 24 hrs by LC-MS/MS analysis; assay type: ADME, organism-based, Macaca fascicularis; details: in vivo, read-out: beta t1/2 (converted)
[20] = target: T2, Beta-1 adrenergic receptor; assay: Agonist activity at human beta-1 adrenoceptor expressed in CHO cells assessed as cAMP accumulation incubated for 10 mins by radioimmunoassay; assay type: functional, cell-based
[21] = target: T1, Beta-2 adrenergic receptor; assay: Agonist activity at human beta-2 adrenoceptor expressed in CHO cells assessed as cAMP accumulation incubated for 10 mins by radioimmunoassay; assay type: functional, cell-based
[22] = system: Urinary bladder; assay: Ex vivo relaxant activity against CCh-induced contraction in rat urinary bladder smooth muscle strips relative to control; assay type: functional
[23] = target: Beta-3 adrenergic receptor (Homo sapiens, UniProt P13945); assay: Agonist activity at human beta-3 adrenoceptor expressed in CHO cells assessed as cAMP accumulation incubated for 10 mins by radioimmunoassay; assay type: functional, cell-based
[24] = system: Enterobacteriaceae; assay: Antibacterial activity against Enterobacteriaceae assessed as bacterial growth inhibition; assay type: functional
[25] = system: Bacteria; assay: Antibacterial activity against aerobic gram-negative bacteria assessed as bacterial growth inhibition; assay type: functional
[26] = Antibacterial activity against non-fermentative bacteria assessed as bacterial growth inhibition
[27] = system: Neisseria gonorrhoeae; assay: Antibacterial activity against Neisseria gonorrhoeae assessed as bacterial growth inhibition; assay type: functional
[28] = target: D(3) dopamine receptor (Homo sapiens, UniProt P35462)
Description: Binding affinity to human D3 receptor assessed as inhibition constant

[29] = system: Pseudomonas aeruginosa; assay: Antibacterial activity against Pseudomonas aeruginosa assessed as bacterial growth inhibition; assay type: functional
[30] = system: Escherichia coli; assay: Antibacterial activity against Escherichia coli assessed as bacterial growth inhibition; assay type: functional
[31] = Inhibition of P-gp-mediated extrusion of [14C]saquinavir in porcine BCEC cells measured after 5 mins by scintillation counting method; assay type: cell-based, Sus scrofa; details: brain capillary endothelial cell
[32] = system: BaF3; assay: Induction of cell proliferation of mouse BaF3 cells expressing full-length human TPO receptor by WST-1/1-methoxy PMS assay; assay type: functional, cell-based
[33] = Induction of colony formation of human megakaryocyte from human cord blood CD34-positive cells measured after 10 to 12 days; assay type: functional, cell-based
[34] = system: Proteus mirabilis; assay: Antibacterial activity against Proteus mirabilis assessed as bacterial growth inhibition; assay type: functional
[35] = target: Acetylcholinesterase (Homo sapiens, UniProt P22303)
Acetylcholinesterase, sequence (P22303 whole entry): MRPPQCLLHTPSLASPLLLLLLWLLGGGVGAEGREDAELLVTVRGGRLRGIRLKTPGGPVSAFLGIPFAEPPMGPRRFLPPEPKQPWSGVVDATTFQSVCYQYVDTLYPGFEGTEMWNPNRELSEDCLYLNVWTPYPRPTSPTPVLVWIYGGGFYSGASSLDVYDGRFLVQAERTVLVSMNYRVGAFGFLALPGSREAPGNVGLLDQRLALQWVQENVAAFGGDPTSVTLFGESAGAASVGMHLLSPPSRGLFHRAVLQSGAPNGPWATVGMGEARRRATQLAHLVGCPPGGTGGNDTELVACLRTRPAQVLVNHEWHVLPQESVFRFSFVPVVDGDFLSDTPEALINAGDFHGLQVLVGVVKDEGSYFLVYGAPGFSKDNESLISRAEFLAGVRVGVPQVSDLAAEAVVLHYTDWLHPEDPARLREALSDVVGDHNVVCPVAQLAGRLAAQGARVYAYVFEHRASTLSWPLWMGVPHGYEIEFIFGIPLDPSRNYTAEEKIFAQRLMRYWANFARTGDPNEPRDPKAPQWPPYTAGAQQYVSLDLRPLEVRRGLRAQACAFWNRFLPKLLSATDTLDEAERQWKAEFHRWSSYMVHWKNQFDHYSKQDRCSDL
Description: Inhibition of AChE (unknown origin)

T2 sequence (P08588 whole entry): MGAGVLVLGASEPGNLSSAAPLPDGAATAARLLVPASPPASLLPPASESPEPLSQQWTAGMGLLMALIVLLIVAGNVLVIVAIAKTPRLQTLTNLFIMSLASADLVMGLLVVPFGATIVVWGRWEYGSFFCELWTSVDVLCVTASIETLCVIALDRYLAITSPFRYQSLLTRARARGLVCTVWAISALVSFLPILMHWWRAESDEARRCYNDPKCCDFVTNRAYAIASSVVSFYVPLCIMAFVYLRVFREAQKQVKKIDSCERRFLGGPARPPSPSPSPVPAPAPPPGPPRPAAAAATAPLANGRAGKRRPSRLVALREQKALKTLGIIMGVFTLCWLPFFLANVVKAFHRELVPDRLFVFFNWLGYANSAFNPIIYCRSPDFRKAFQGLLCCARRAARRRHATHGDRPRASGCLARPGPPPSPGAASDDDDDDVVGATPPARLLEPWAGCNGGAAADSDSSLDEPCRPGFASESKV
T1 sequence (P07550 whole entry): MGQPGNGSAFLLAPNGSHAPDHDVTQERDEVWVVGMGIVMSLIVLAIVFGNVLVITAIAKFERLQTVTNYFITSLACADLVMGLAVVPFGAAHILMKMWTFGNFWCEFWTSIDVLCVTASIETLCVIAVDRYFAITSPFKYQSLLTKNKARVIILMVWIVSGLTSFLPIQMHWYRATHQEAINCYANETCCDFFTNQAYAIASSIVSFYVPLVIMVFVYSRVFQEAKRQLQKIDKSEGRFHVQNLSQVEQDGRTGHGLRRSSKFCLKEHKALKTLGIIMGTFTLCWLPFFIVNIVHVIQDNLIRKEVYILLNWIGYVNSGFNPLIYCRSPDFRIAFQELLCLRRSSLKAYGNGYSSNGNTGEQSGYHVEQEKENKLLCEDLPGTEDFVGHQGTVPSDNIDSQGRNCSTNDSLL
D(3) dopamine receptor, sequence (P35462 whole entry): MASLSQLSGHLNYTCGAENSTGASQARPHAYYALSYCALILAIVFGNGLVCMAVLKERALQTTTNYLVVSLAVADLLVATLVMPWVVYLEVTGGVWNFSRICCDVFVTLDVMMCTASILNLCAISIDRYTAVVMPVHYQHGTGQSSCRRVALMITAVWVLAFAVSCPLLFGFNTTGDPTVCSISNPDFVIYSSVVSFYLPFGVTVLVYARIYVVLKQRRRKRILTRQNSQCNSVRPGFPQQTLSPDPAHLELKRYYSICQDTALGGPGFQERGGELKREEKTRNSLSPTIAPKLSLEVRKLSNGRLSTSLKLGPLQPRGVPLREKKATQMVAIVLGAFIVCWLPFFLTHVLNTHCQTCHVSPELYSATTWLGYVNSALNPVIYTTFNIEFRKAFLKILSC
Beta-3 adrenergic receptor, sequence (P13945 whole entry): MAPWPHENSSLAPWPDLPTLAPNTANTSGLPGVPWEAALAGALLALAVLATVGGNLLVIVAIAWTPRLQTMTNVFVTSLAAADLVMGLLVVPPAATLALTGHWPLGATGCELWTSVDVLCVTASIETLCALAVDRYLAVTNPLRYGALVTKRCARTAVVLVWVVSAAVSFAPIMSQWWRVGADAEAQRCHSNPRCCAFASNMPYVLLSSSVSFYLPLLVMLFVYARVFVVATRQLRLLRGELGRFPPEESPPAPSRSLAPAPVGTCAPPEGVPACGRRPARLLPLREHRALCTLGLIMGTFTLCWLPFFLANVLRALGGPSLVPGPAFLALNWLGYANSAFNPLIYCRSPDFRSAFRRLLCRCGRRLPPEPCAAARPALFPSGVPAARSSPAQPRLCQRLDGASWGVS

Cc1nc(NC(=O)N2CCC[C@H]2C(N)=O)sc1-c1ccnc(C(C)(C)C(F)(F)F)c1 [ALPELISIB]
IC50 [1]: ~4 nM

Nc1nc(/C(=C/CC(=O)O)C(=O)N[C@@H]2C(=O)N3C(C(=O)O)=CCS[C@H]23)cs1 [CEFTIBUTEN]
MIC [2]: 0.5 µg/mL (≈ 1.22 µM) | MIC [3]: 0.015 µg/mL (≈ 0.0365 µM) | MIC [4]: 0.5 µg/mL (≈ 1.22 µM)

C[C@H]1[C@H](NC(=O)/C(=N\OC(C)(C)C(=O)O)c2csc(N)n2)C(=O)N1S(=O)(=O)O [AZTREONAM]
MIC [5]: 8 µg/mL (≈ 18.4 µM) | MIC [6]: ≥ 8 µg/mL | MIC [7]: ≥ 8 µg/mL

CN(C)CCn1nnnc1SCC1=C(C(=O)O)N2C(=O)[C@@H](NC(=O)Cc3csc(N)n3)[C@H]2SC1 [CEFOTIAM]
MIC [8]: > 128 µg/mL | MIC [7]: 0.25 µg/mL (≈ 0.476 µM) | MIC [9]: ≥ 16 µg/mL

CC(=O)Oc1ccccc1C(=O)Nc1ncc([N+](=O)[O-])s1 [NITAZOXANIDE]
IC50 [10]: 2400 nM

CC(C)(C)NCC(O)CSc1nc(-c2ccc(C(N)=O)s2)cs1 (centres undefined) [AROTINOLOL]
Ki [11]: 0.55 nM | Ki [12]: 0.182 nM

Cc1nc(Nc2ncc(C(=O)Nc3c(C)cccc3Cl)s2)cc(N2CCN(CCO)CC2)n1.O [DASATINIB]
half-life at 10 h [13]: 3.3 h | IC50 [14]: 52 nM | half-life at 10 h [15]: 3.1 h | bioavailability [16]: 27% | IC50 [17]: < 1 nM

COc1ccc2c(O[C@@H]3C[C@H]4C(=O)N[C@]5(C(=O)NS(=O)(=O)C6CC6)C[C@H]5/C=C\CCCCN(C)C(=O)[C@@H]4C3)cc(-c3nc(C(C)C)cs3)nc2c1C
half-life [18]: 1.5 h | half-life [19]: 4.1 h

Nc1nc(CC(=O)Nc2ccc(CCNC[C@H](O)c3ccccc3)cc2)cs1 [MIRABEGRON]
EC50 [20]: ≥ 10000 nM | EC50 [21]: ≥ 10000 nM | Emax [22]: 94% | EC50 [23]: 22.4 nM

CC(C)(O/N=C(\C(=O)N[C@@H]1C(=O)N2C(C(=O)[O-])=C(C[N+]3(CCNC(=O)c4ccc(O)c(O)c4Cl)CCCC3)CS[C@H]12)c1csc(N)n1)C(=O)O [CEFIDEROCOL]
MIC [24]: < 2 µg/mL | MIC [25]: < 2 µg/mL | MIC [26]: < 2 µg/mL

COCC1=C(C(=O)O)N2C(=O)[C@@H](NC(=O)/C(=N\OC)c3csc(N)n3)[C@H]2SC1 [CEFPODOXIME]
MIC [6]: ≤ 0.004 µg/mL | MIC [27]: 0.004 µg/mL (≈ 0.00936 µM) | MIC [3]: ≤ 0.03 µg/mL

C=CC1=C(C(=O)O)N2C(=O)[C@@H](NC(=O)/C(=N\O)c3csc(N)n3)[C@H]2SC1
MIC [6]: ≤ 0.004 µg/mL | MIC [3]: 0.05 µg/mL (≈ 0.126 µM) | MIC [4]: 0.006 µg/mL (≈ 0.0152 µM)

CCCN[C@H]1CCc2nc(N)sc2C1 [PRAMIPEXOLE DIHYDROCHLORIDE]
Ki [28]: 0.5 nM

CO/N=C(\C(=O)N[C@@H]1C(=O)N2C(C(=O)[O-])=C(C[N+]3(C)CCCC3)CS[C@H]12)c1csc(N)n1
MIC [29]: > 0.06 µg/mL | MIC [30]: ≤ 0.007 µg/mL | MIC [4]: 0.007 µg/mL (≈ 0.0146 µM)

CC(C)c1nc(CN(C)C(=O)N[C@H](C(=O)N[C@@H](Cc2ccccc2)C[C@H](O)[C@H](Cc2ccccc2)NC(=O)OCc2cncs2)C(C)C)cs1 [RITONAVIR]
IC50 [31]: 200 nM

O=C(Nc1nc(-c2cc(Cl)cs2)c(N2CCN(C3CCCCC3)CC2)s1)c1cnc(N2CCC(C(=O)O)CC2)c(Cl)c1 [AVATROMBOPAG]
EC50 [32]: 3.3 nM | EC50 [33]: 25 nM

C=CC1=C(C(=O)O)N2C(=O)[C@@H](NC(=O)/C(=N\OCC(=O)O)c3csc(N)n3)[C@H]2SC1 [CEFIXIME]
MIC [34]: ≤ 0.008 µg/mL | MIC [3]: 0.004 µg/mL (≈ 0.00882 µM) | MIC [30]: 0.015 µg/mL (≈ 0.0331 µM)

COc1cc(O)c(C(=O)Nc2nc(C(=O)NCCN(C(C)C)C(C)C)cs2)cc1OC
IC50 [35]: 1790 nM
